Source: ChEMBL document CHEMBL1240532, “Spiroindolones, a potent compound class for the treatment of malaria” (Science, 2010)
Activity calls are given as the source filed them. The calls are words filed in the database; no cut-off is given here.

Legend:
[1] = Clearance in CD1 mouse at 5.4 mg/kg, iv; format: ADME, organism-based; parameters: dose 5.4 mg/kg, route intravenous; settings: in vivo
[2] = Oral bioavailability in Wistar rat at 23.7 mg/kg; format: ADME, organism-based; settings: in vivo
Plasmodium falciparum [3] = assay: Antimalarial activity against Plasmodium falciparum NF54 after 48 hrs incubation by [3H]hypoxanthin incorporation assay
Plasmodium falciparum [4] = assay: microbe, parasite or virus in culture; settings: Dd2, 72 h
[5] = Oral bioavailability in CD1 mouse at 24.6 mg/kg; format: ADME, organism-based; settings: in vivo
[6] = Binding affinity to human recombinant adenosine transporter
Plasmodium falciparum [7] = assay: microbe, parasite or virus in culture; settings: Dd2, 72 h; remark: listed apart in the source
[8] = Intrinsic clearance in monkey liver microsome; format: ADME, Macaca mulatta; settings: rhesus monkey, liver microsomes
[9] = target: Amine oxidase [flavin-containing] A (Homo sapiens, UniProt P21397); assay: Binding affinity to human recombinant MAOM
[10] = Cytotoxicity against human THP1 cells after 4 days by XTT assay; format: cell-based; settings: THP-1 cells
Substance-P receptor = Substance-P receptor (Homo sapiens, UniProt P25103); assay: Binding affinity to human recombinant neurokinin NK1 receptor
[11] = target: Hydroxycarboxylic acid receptor 2 (Homo sapiens, UniProt Q8TDS4); assay: Binding affinity to human recombinant niacin receptor
Plasmodium berghei [12] = assay: Antimalarial activity against Plasmodium berghei GFP ANKA infected in NMRI mice (Mus musculus) assessed as survival at 10 mg/kg, perorally administered as single dose as single dose 24 hrs post infection for 1 day measured 72 hrs post infection; format: functional; settings: route oral
[13] = Intrinsic clearance in rat liver microsome; format: ADME; settings: liver microsomes
Plasmodium falciparum [14] = assay: Antimalarial activity against pyrimethamine-resistant Plasmodium falciparum 7G8 after 48 hrs incubation by [3H]hypoxanthine incorporation assay
Estrogen receptor beta = Estrogen receptor beta (Homo sapiens, UniProt Q92731); assay: Binding affinity to human recombinant ERbeta
[15] = target: Muscarinic acetylcholine receptor M2 (Homo sapiens, UniProt P08172); assay: Binding affinity to human recombinant muscarinic M2 receptor
[16] = target: Prostaglandin G/H synthase 1 (Homo sapiens, UniProt P23219); assay: Binding affinity to human recombinant COX1
Melanocortin receptor 4 = Melanocortin receptor 4 (Homo sapiens, UniProt P32245); assay: Binding affinity to human recombinant melanocortin MC4 receptor
[17] = Tmax in Wistar rat at 23.7 mg/kg, po; format: ADME, organism-based; parameters: dose 23.7 mg/kg, route oral; settings: in vivo
[18] = Intrinsic clearance in mouse liver microsome; format: ADME; settings: liver microsomes
[19] = target: Delta-type opioid receptor (Homo sapiens, UniProt P41143); assay: Binding affinity to human recombinant opiate delta receptor
[20] = Binding affinity to human recombinant nicotinic (CNS) receptor
[21] = Volume of distribution at steady state in CD1 mouse at 5.4 mg/kg, iv; format: ADME, organism-based; parameters: dose 5.4 mg/kg, route intravenous; settings: in vivo, read-out: Vdss
Plasmodium berghei [22] = assay: Antimalarial activity against Plasmodium berghei GFP ANKA infected in NMRI mice (Mus musculus) assessed as cure rate at 100 mg/kg, perorally administered as single dose 24 hrs post infection for 1 day measured 30 days post infection; format: functional; settings: route oral
[23] = Binding affinity to rat N-type calcium channel
[24] = target: Alpha-2C adrenergic receptor (Homo sapiens, UniProt P18825); assay: Binding affinity to human recombinant alpha2c receptor
[25] = target: 5-hydroxytryptamine receptor 1A (Homo sapiens, UniProt P08908); assay: Binding affinity to human recombinant serotonin 5-HT1A receptor
[26] = target: Voltage-gated L-type calcium channel (Rattus norvegicus, UniProt P22002+Q02485+P27732); assay: Binding affinity to rat L-type calcium channel
Vasopressin V2 receptor = Vasopressin V2 receptor (Homo sapiens, UniProt P30518); assay: Binding affinity to human recombinant vasopressin V2 receptor
Androgen receptor = Androgen receptor (Homo sapiens, UniProt P10275); assay: Binding affinity to human recombinant androgen receptor
B1 bradykinin receptor = B1 bradykinin receptor (Homo sapiens, UniProt P46663); assay: Binding affinity to human recombinant bradykinin B1 receptor
[27] = AUC (0 to infinity) in CD1 mouse at 24.6 mg/kg, po; format: ADME, organism-based; parameters: time infinity, dose 24.6 mg/kg, route oral; settings: plasma
Histamine H2 receptor = Histamine H2 receptor (Homo sapiens, UniProt P25021); assay: Binding affinity to human recombinant histamine H2 receptor
Plasmodium falciparum [28] = assay: Antimalarial activity against Plasmodium falciparum isolates after 42 hrs; format: functional, organism-based
[29] = target: Prostaglandin G/H synthase 2 (Homo sapiens, UniProt P35354); assay: Binding affinity to human recombinant COX2
[30] = Tmax in CD1 mouse at 24.6 mg/kg, po; format: ADME, organism-based; parameters: dose 24.6 mg/kg, route oral; settings: in vivo
[31] = target: Corticotropin-releasing factor receptor 1 (Homo sapiens, UniProt P34998); assay: Binding affinity to human recombinant CRF1 receptor
D(1A) dopamine receptor = D(1A) dopamine receptor (Homo sapiens, UniProt P21728); assay: Binding affinity to human recombinant dopamine D1 receptor
[32] = Intrinsic clearance in human liver microsome; format: ADME; settings: liver microsomes
Plasmodium berghei [33] = assay: Antimalarial activity against Plasmodium berghei GFP ANKA infected in NMRI mice (Mus musculus) assessed as survival at 10 mg/kg, perorally administered through 0.5% MCM/0.1%solutol HS15 formulation 24 hrs post infection for 3 days measured 96 hrs post infection; format: functional; settings: route oral
[34] = target: Type-1 angiotensin II receptor (Homo sapiens, UniProt P30556); assay: Binding affinity to human recombinant angiotensin2 AT1 receptor
D(3) dopamine receptor = D(3) dopamine receptor (Homo sapiens, UniProt P35462); assay: Binding affinity to human recombinant dopamine D3 receptor
[35] = target: Neuropeptide Y receptor type 1 (Homo sapiens, UniProt P25929); assay: Binding affinity to human recombinant neuropeptide Y1 receptor
Plasmodium berghei [36] = assay: Antimalarial activity against Plasmodium berghei GFP ANKA infected in NMRI mice (Mus musculus) assessed as survival at 50 mg/kg, perorally administered through 0.5% MCM/0.1%solutol HS15 formulation 24 hrs post infection for 3 days measured 96 hrs post infection; format: functional; settings: route oral
Plasmodium falciparum [37] = assay: Antimalarial activity against NITD609-resistant Plasmodium falciparum Dd2 Clone1 bearing P-type ATPase4 I398F and P990R mutations after 72 hrs by SYBR green based fluorescence assay; format: functional, organism-based; settings: Dd2, 72 h
Melanocortin receptor 3 = Melanocortin receptor 3 (Homo sapiens, UniProt P41968); assay: Binding affinity to human recombinant melanocortin MC3 receptor
[38] = target: Muscarinic acetylcholine receptor M1 (Homo sapiens, UniProt P11229); assay: Binding affinity to human recombinant muscarinic M1 receptor
Plasmodium berghei [39] = assay: Antimalarial activity against Plasmodium berghei GFP ANKA infected in NMRI mice (Mus musculus) assessed as survival at 100 mg/kg, perorally administered as single dose 24 hrs post infection for 1 day measured 72 hrs post infection; format: functional; settings: route oral
Plasmodium falciparum [40] = assay: microbe, parasite or virus in culture; settings: Dd2, 72 h; remark: listed apart in the source
[41] = target: Corticotropin-releasing factor receptor 2 (Homo sapiens, UniProt Q13324); assay: Binding affinity to human recombinant CRF2alpha receptor

Sequence of Histamine H2 receptor (P25021 whole entry): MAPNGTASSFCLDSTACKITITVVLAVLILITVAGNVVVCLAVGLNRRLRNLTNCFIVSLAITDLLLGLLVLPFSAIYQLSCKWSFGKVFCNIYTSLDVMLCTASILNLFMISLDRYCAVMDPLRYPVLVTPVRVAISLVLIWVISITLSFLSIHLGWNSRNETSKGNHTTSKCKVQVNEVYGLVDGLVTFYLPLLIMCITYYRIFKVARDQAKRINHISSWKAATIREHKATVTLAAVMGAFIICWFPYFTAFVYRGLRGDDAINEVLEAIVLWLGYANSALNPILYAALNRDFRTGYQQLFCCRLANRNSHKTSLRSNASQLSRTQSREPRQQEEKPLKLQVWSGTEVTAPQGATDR
Sequence of Melanocortin receptor 4 (P32245 whole entry): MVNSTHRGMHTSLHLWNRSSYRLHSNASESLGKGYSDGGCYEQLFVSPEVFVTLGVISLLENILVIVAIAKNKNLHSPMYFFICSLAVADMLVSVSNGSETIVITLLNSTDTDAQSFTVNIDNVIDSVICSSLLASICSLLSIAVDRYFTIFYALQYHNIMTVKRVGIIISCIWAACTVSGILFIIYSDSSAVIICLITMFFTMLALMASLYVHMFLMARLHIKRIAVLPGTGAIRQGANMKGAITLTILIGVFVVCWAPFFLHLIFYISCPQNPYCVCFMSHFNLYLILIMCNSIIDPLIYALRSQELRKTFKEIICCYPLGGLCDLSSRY
Sequence of Androgen receptor (P10275 whole entry): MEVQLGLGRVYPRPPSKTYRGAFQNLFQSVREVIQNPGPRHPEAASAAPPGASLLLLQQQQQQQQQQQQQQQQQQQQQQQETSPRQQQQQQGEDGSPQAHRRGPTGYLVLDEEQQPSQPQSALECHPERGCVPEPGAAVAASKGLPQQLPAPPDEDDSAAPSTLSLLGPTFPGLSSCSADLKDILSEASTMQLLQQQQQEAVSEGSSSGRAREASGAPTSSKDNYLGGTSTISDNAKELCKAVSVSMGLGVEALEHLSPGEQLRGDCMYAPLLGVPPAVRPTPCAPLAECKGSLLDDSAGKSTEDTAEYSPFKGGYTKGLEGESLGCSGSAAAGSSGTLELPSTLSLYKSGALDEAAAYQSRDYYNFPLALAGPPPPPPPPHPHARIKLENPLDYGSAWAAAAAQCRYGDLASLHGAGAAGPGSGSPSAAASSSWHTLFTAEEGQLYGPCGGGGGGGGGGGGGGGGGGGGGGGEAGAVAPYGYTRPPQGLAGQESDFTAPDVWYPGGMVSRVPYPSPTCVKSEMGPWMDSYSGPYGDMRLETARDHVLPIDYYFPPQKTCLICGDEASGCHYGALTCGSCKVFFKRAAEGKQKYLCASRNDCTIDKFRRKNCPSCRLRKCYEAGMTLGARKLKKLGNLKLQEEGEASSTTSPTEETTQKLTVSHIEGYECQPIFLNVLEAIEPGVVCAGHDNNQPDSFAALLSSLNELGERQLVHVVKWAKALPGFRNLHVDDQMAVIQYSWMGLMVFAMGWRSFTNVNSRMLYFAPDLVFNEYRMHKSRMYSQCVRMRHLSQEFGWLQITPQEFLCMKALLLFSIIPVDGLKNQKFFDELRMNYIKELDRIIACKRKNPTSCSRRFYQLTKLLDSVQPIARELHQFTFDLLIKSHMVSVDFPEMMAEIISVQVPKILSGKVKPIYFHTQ
Sequence of Neuropeptide Y receptor type 1 (P25929 whole entry): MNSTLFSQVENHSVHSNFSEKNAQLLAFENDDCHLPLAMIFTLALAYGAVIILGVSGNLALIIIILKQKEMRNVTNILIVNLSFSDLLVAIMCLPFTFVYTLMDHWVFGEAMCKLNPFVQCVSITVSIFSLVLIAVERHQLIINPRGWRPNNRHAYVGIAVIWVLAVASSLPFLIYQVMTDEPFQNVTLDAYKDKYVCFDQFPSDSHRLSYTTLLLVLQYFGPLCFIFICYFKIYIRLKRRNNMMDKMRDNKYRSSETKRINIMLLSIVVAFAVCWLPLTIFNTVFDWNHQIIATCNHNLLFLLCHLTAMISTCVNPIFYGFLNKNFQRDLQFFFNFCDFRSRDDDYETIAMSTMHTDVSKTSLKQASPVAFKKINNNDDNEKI
Sequence of Hydroxycarboxylic acid receptor 2 (Q8TDS4 whole entry): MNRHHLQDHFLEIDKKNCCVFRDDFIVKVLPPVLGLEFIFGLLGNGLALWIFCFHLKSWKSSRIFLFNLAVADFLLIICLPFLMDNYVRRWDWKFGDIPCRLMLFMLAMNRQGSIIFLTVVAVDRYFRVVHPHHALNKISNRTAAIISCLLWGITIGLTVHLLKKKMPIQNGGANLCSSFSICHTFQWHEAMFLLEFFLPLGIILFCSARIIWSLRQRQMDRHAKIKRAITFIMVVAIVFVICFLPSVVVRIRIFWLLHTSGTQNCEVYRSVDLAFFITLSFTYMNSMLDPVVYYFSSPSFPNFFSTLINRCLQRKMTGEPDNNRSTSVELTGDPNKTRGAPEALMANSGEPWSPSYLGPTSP
Sequence of Muscarinic acetylcholine receptor M2 (P08172 whole entry): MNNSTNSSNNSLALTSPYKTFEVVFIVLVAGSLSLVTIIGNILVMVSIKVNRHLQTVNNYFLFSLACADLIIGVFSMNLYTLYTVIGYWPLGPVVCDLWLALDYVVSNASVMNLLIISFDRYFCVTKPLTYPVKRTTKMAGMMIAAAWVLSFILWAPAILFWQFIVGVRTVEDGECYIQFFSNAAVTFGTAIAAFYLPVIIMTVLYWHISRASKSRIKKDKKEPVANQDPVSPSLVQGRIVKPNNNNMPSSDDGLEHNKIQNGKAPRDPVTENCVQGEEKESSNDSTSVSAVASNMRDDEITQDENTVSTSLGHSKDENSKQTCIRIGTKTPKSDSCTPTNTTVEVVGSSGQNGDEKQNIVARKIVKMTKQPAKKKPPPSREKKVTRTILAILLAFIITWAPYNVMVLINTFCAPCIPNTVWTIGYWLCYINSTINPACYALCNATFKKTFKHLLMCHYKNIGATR
Sequence of Vasopressin V2 receptor (P30518 whole entry): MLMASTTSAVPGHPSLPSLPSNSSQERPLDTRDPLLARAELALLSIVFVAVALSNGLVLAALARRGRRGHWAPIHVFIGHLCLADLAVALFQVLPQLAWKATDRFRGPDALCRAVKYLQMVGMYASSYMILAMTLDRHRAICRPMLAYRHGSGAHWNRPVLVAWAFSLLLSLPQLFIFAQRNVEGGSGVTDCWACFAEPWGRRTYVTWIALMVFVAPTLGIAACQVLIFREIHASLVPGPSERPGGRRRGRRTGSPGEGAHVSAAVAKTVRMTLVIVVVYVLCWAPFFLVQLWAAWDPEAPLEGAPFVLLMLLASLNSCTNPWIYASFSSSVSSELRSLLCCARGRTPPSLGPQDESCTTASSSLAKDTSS
Sequence of Amine oxidase [flavin-containing] A (P21397 whole entry): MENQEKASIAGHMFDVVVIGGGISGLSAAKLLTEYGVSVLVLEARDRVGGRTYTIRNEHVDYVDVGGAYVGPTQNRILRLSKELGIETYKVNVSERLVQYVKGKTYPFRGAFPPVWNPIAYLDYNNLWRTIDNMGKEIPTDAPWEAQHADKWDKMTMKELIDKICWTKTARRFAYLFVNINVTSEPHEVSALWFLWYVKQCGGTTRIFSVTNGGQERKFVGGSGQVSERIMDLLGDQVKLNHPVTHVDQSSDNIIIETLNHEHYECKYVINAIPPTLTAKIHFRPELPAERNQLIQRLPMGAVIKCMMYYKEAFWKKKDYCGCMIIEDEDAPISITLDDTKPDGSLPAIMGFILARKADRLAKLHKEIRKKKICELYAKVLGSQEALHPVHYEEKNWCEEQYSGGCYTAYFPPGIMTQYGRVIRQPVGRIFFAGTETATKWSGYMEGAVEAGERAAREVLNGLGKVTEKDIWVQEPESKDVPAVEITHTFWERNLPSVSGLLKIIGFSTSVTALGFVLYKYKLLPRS
Sequence of Prostaglandin G/H synthase 1 (P23219 whole entry): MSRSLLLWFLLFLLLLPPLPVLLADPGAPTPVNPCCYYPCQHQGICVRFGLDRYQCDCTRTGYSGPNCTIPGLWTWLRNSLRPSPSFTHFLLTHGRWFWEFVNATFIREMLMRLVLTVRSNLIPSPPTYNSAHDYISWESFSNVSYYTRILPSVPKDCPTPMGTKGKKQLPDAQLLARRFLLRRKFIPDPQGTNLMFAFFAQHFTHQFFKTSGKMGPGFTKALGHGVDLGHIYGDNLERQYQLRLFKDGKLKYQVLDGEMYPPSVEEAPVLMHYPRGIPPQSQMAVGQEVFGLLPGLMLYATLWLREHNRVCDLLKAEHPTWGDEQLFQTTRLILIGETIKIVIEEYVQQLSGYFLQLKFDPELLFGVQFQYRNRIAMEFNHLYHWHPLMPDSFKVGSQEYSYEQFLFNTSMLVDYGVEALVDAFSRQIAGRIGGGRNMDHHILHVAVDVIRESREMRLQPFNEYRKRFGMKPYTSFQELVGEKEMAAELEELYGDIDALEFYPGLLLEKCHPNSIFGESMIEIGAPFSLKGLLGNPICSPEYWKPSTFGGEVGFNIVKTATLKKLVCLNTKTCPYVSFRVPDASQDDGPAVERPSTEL
Sequence of Type-1 angiotensin II receptor (P30556 whole entry): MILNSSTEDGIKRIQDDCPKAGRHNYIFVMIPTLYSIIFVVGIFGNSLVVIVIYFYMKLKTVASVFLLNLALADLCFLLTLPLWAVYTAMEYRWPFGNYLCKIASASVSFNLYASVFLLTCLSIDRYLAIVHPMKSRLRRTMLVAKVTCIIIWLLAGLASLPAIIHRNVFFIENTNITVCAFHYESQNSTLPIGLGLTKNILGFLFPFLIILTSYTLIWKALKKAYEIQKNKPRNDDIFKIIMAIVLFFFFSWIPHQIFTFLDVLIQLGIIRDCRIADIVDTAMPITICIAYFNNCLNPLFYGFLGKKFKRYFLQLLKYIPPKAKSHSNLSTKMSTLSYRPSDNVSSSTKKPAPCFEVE

## C[C@H]1Cc2c([nH]c3cc(Cl)c(F)cc23)[C@@]2(N1)C(=O)Nc1ccc(Cl)cc12 [CIPARGAMIN]
[1]
  clearance: 9.75 mL/min/kg
[2]
  bioavailability: 100%
Plasmodium falciparum [3]
  IC50: 0.0005 µM
Plasmodium falciparum [4]
  IC50: 0.0028 µM
[5]
  bioavailability: 100%
[6]
  IC50: > 30 µM
Plasmodium falciparum [7]
  IC50: 0.0028 µM
[8]
  CLint scaled: 6.05 mL/min/kg
[9]
  IC50: > 10 µM
[10]
  CC50 at 96 h: 14 µM
Substance-P receptor
  IC50: > 10 µM
[11]
  IC50: > 10 µM
Plasmodium berghei [12]
  mean survival time at 10 mg/kg: 13.3 days
[13]
  CLint scaled: 5.8 mL/min/kg
Plasmodium falciparum [14]
  IC50: 0.0012 µM
Estrogen receptor beta
  IC50: > 30 µM
[15]
  IC50: > 10 µM
[16]
  IC50: > 30 µM
Melanocortin receptor 4
  IC50: > 30 µM
[17]
  Tmax: 8 h
[18]
  CLint scaled: 49.7 mL/min/kg
[19]
  IC50: > 10 µM
[20]
  IC50: > 10 µM
[21]
  Vd: 2.11 L/kg
Plasmodium berghei [22]
  Activity: 100%
[23]
  IC50: > 10 µM
[24]
  IC50: > 10 µM
[25]
  IC50: > 10 µM
[26]
  IC50: > 10 µM
Vasopressin V2 receptor
  IC50: > 30 µM
Androgen receptor
  IC50: > 30 µM
B1 bradykinin receptor
  IC50: > 30 µM
[27]
  AUC(0-inf): 139 µM·h
Histamine H2 receptor
  IC50: > 10 µM
Plasmodium falciparum [28]
  inhibition: Active
[29]
  IC50: > 30 µM
[30]
  Tmax: 1 h
[31]
  IC50: > 30 µM
D(1A) dopamine receptor
  IC50: > 10 µM
[32]
  CLint scaled: 8.67 mL/min/kg
Plasmodium berghei [33]
  Survival: 24.4 days
[34]
  IC50: > 30 µM
D(3) dopamine receptor
  IC50: > 10 µM
[35]
  IC50: > 10 µM
Plasmodium berghei [36]
  Survival: 30 days
Plasmodium falciparum [37]
  IC50: 0.0109 µM
Melanocortin receptor 3
  IC50: > 30 µM
[38]
  IC50: > 10 µM
Plasmodium berghei [39]
  Survival: >30 days
Plasmodium falciparum [40]
  IC50: 0.0041 µM
[41]
  IC50: > 30 µM
